The values that follow come from patent publication US20250235472A1, “USE OF 6-PHOSPHOGLUCONIC ACID AND DERIVATIVE THEREOF IN PREPARING MEDICAMENT FOR PREVENTING OR TREATING GLYCOMETABOLISM DISORDER DISEASES” (FUDAN UNIVERSITY, priority 2022, published 2025).

For experiment [1], the system named is type 1 diabetes mellitus mice. Kind of experiment: Random blood glucose level in streptozotocin type 1 diabetes mellitus mouse model. Format: in vivo. As to conditions: 200 mg/kg at 8 a.m. and 8 p.m. everyday; compared with the normal saline group; FIG. 4. The source says: (§1) • 1. Blood glucose test strips and blood glucose meter, from Eli Lilly and Company, USA; • 2. C57 B6/J Female mice, from Nanjing Gem Pharmaceutical Co., Ltd.; • 3. Streptozotocin, from Sigma-Aldrich Company, USA; • 4. Ultrasensitive insulin kit, from ALPCO Company, USA; • 5. Insulin antibody, from DAKO Company, USA; • 6. Glucagon antibody, from ABCAM Company, USA; and • 7. Other reagents required for immunofluorescence assay were purchased from Shanghai Sangon Technology Co., Ltd.
(§2) An 8-week-old C57B6/J female mouse was administered intraperitoneally with 200 mg/kg of streptozotocin solution. After 5 days of injection, the random blood glucose level of the mice was measured, mice with blood glucose levels higher than 20 mmol/L were selected and randomly divided into two groups for subsequent experiments.
(§3) Type 1 diabetes mellitus mouse models were administered 200 mg/kg of 6-phosphogluconic acid methyl ester (compound 1-1) or physiological saline at 8 a.m. and 8 p.m. everyday. The random blood glucose level of each mouse was measured once a day. Before the end of the experiment, the mice were fasted for 16 hours, and a small amount of peripheral blood was taken from the tail vein.

Experiment [2] concerns type 1 diabetes mellitus mice. Kind of experiment: Insulin concentration in peripheral blood measured by ultrasensitive insulin kit. The experiment is classed as in vivo, mouse. As to conditions: 200 mg/kg twice daily; fasted for 16 hours; compared with the normal saline group; FIG. 6.
Description: as §1, §2, §3
The concentration of insulin in peripheral blood of mice was measured by an ultrasensitive insulin kit.

For a further experiment, the system named is islet β-cells. Kind of experiment: Immunofluorescence assay of regeneration of islet β-cells in type 1 diabetes mellitus mice. As to conditions: 200 mg/kg twice daily, compared with the normal saline group, FIG. 5. The experiment is classed as in vivo, mouse.
Description: as §1, §2, §3
Immunofluorescence assay was used to measure the regeneration of islet β-cells of type 1 diabetes mellitus mice.

Regarding `COC(=O)[C@H](O)[C@@H](O)[C@H](O)[C@H](O)COP(=O)(O)O` [Compound 1-1, 6-phosphogluconic acid methyl ester], in experiment [1], the “random blood glucose level” value was “significantly reduced”. Also, the “concentration of fasting insulin in peripheral blood” value in experiment [2] was “significantly increased”. For the same molecule, in the experiment with islet β-cells, the “number of islet β-cells (regeneration)” value is on record as “significantly increased”.
